Paper PMC7904827 (Scientific Reports, 2021)
Where a name gives a salt, the structure may show the parent alone. Read-outs that look alike come from different tables or passages of the source.

Experiments:
[1] = Approximate solubility in distilled water at room temperature; format: physicochemical; conditions: for solubility: distilled water, room temperature
Procedure: The syntheses of the target prodrugs were performed according to a known three-step procedure with some modifications. Target prodrugs GK-667, GK-678 and GK-691 were obtained in 34%, 37% and 17% overall yields, respectively. […] The resulting solutions remained physically stable for at least two hours at room temperature.

[2] = tested on: neonatal ventricular cardiomyocytes (NVCMs); assay: Toxicity of the prodrugs alone in NVCMs (LDH release); format: cell-based, rat; design: key to LDH release, statistical significance compared to control: c - compared to control; P ≤ 0.01; conditions: prodrug alone 1–100 µM, NVCMs; n.s. or c in Fig. S2
Procedure: (§1) After 3 h, DAU solution (1.2 µM) was added to the media. After another 3 h, the medium was replaced with new (drug-free) exposure medium, and the cardiomyocytes were then kept until the end of the experiment. In addition to cytoprotective properties, the toxicity of the studied agent was also examined; this experiment was performed as described above with only the DAU addition step omitted.
(§2) Forty-five hours after the last medium exchange, a sample of medium was taken from each well to assess lactate dehydrogenase (LDH) activity[27]–[29]. For details, see the Supplementary material.
(§3) 1.5 LDH activity evaluation
(§4) The control wells were treated with lysis buffer (0.1 M potassium phosphate, 1% Triton
(§5) X-100, 1 mM DTT, 2 mM EDTA; pH 7.8; 15 min; room temperature) to measure the total
(§6) cellular LDH level (sum of the activity in the control medium and the lysate). The activity of
(§7) LDH was assayed in Tris-HCl buffer (pH 8.9) containing 35 mM sodium lactate and 5 mM
(§8) NAD+. The rate of NAD+ reduction was monitored spectrophotometrically at 340 nm for 2 min.
(§9) The slope of the linear region and molar absorption coefficient e = 6.22*10 3 M/cm were used
(§10) to calculate the LDH activity, and the data were expressed as a percentage of total L DH activity. […]

[3] = tested on: neonatal ventricular cardiomyocytes (NVCMs); assay: In vitro cardioprotection bioassay against daunorubicin toxicity (LDH release); format: cell-based, rat; conditions: 3 h preincubation, DAU 1.2 µM, LDH release after 48 h
Procedure: NVCMs were isolated in-house from 1- to 3-day-old Wistar rats as described previously. The use of animals and experimental protocols were approved by Charles University, Faculty of Pharmacy Animal Welfare Committee. All experiments were performed in accordance with Directive 2010/63/EU on the Protection of Animals Used for Scientific Purposes and in compliance with Animal Research: Reporting of In Vivo Experiments (ARRIVE) guidelines. Newly isolated cardiomyocytes were left for 40 h to form a monolayer of spontaneously beating cardiomyocytes in seeding medium (DMEM/F12 supplemented with 10% HS, 5% FBS, 4% PYR and 1% P/S), which was then replaced with culture medium (DMEM/F12 supplemented with 5% FBS, 4% PYR and 1% P/S). The medium was replaced again after 24 h for new culture medium.
as §1, §2, §3, §4, §5, §6, §7, §8, §9, §10

[4] = ICRF-193 release from the prodrugs during incubation in DMEM (thermomixer, UHPLC-MS/MS); format: in vitro ADME; conditions: 100 µM, 37 °C
Procedure: All samples were spiked with the internal standards. DMEM or buffer (100 μL) was diluted with an ice-cold methanol/water mixture (20:80, v/v), mixed and analyzed. Plasma (50 μL) was precipitated with ice-cold methanol (1:5, v/v), mixed (20 s) and centrifuged (10 min, 10,000 rpm, 4 °C). NVCM pellets (4.8 × 10^6 cells) were precipitated with ice-cold methanol (250 μL), mixed (20 s), sonicated in a cold ultrasonic bath (75 s), mixed (30 s) and centrifuged (10 min, 10,000 rpm, 4 °C). The supernatants from the plasma and NVCM extractions were filtered (0.22 μm, PVDF) prior to analysis. For assay of the prodrugs, the samples were acidified with formic acid to a final concentration of 0.5%.
The samples were analyzed using two UHPLC instruments both coupled to a triple quadrupole mass spectrometer. […] Positive ionization mode was used in both methods. The analytical columns tested are characterized in the Supplementary materials.
The prodrugs (100 μM) were incubated (37 °C) in DMEM in a thermomixer (Thermomixer Comfort, Eppendorf, Germany) under gentle mixing (350 rpm) for 48 h.
From all of the above described experiments, samples were taken at predefined intervals, treated and immediately analyzed. All experiments were performed in four replicates, and the results are expressed as the mean ± SD.

[5] = In vivo pharmacokinetic study of GK-667 in rabbits, noncompartmental analysis; design: species or system rabbit
Procedure: GK-667 was freshly dissolved in saline (5 mg/mL) before each administration. New Zealand White male rabbits (n = 6, ∼3.8 kg) received GK-667 (5 mg/kg) administered as a single slow (2 min) intravenous dose bolus to the ear marginal vein. Blood (∼1 mL) was sampled from veins on the contralateral ear at selected time points after drug administration (5 min to 9 h) into BD Vacutainers (BD Biosciences, Plymouth, UK) containing lithium heparin. Collected blood samples were immediately centrifuged (2 min, 3000 rpm, 4 °C), and plasma samples were harvested directly.
Plasma samples taken 0 to 20 min after GK-667 administration were immediately processed by the addition of formic acid and precipitation with ice-cold methanol. The supernatants were then analyzed for all analytes, including the intact prodrug. This was essential to ensure the appropriate determination of highly labile GK-667 at the first sampling intervals, and the whole procedure was validated for this purpose. […] Thus, all following plasma samples were immediately shock-frozen in liquid nitrogen and stored at -80 °C until analysis.
For drug administration and blood sampling, light anesthesia was induced in rabbits with a mixture of ketamine (25 mg/kg, i.m.) and midazolam (2.5 mg/kg, i.m.); sedation was then maintained with midazolam when needed. The blood withdrawn from the animals was compensated with an appropriate volume of sterile saline. All in vivo experiments and procedures were approved and supervised by the Animal Welfare Committee of the Faculty of Medicine in Hradec Kralove (Charles University), and the experiments were performed in compliance with the ARRIVE guidelines.
Standard noncompartmental analysis was performed using Kinetica software (version 4.0, Thermo Fisher Scientific Inc., USA). The population parameter estimation for nonlinear mixed effect models was conducted using Monolix version 2019R2 software (Antony, France: Lixoft SAS, 2019, http://lixoft.com/products/monolix/). The stochastic approximation expectation maximization (SAEM) algorithm coupled with Markov Chain Monte Carlo (MCMC) without the use of approximations (linearization) was used for the estimation of the likelihood. For evaluation of the goodness-of-fit, the following plots were assessed: observed versus individual predicted concentrations, weighted residuals versus time and weighted residuals versus predictions. Individual parameter values were obtained as empirical Bayes estimates. A visual predictive check with 1000 simulated data sets was performed.

[6] = Freeze-thaw and storage stability in plasma at -80 °C; format: in vitro ADME, rabbit; conditions: for % of initial concentration, 1st freeze-thaw cycle / % of initial concentration, 2nd freeze-thaw cycle: plasma, -80 °C
Procedure: ICRF-193 and ICRF-193met in plasma, respectively. Unweighted and weighted (1/x and 1/x2) linear regression was applied to obtain the best fitting calibration model. […]
(§11) Stability of the analytes was examined at low and high concentrations. Process s tability (n=3) in plasma was tested for 20 min at either laboratory temperature (23 °C) or on ice (4 °C, only for GK-667). Post-preparation stability was examined for 8 to 10 h in an autosampler (8 °C, n=3) for all treated matrices. […]
plasma was tested at -80 °C and the freezing cycle was repeated twice (n=3). […]

[7] = Post-preparation stability of the extracted analytes in autosampler (8 °C); format: physicochemical
Procedure: Linearity was tested within the concentration range of 0.2 – 100 μM for all compounds in DMEM, the buffer and plasma and 10-100 pmol/106cells in NVCMs (method I). For […]
Unweighted and weighted (1/x and 1/x2) linear regression was applied to obtain the best fitting calibration model.
Accuracy and precision were calculated at 4 levels (LLOQ, low, medium and high concentrations). Five quality control (QC) samples were used for all concentration levels. […]
as §11
plasma was tested at -80 °C and the freezing cycle was repeated twice (n=3). The buffer, DMEM, NVCMs and plasma samples containing GK -667 from in vitro studies and from first intervals of pharmacokinetic study (up to 20 min) w ere treated and analyzed immediately after […]

[8] = Population pharmacokinetic analysis in rabbits; format: in vivo, rabbit; conditions: population median
Source text: All model parameters of ICRF-193 and ICRF-193met could not be simultaneously estimated by stochastic approximation expectation maximization (SAEM) in one step. […] A maximum likelihood estimation was used to calculate the parameters CLmet, CLother, V4, and CLICRF-193met. For the remaining parameters of the parent-metabolite model (Fig. S5), a maximum a posteriori (MAP) estimation was adopted. The residual error in the population kinetic analysis was best described with a proportional model.
Standard noncompartmental analysis was performed using Kinetica software (version 4.0, Thermo Fisher Scientific Inc., USA). The population parameter estimation for nonlinear mixed effect models was conducted using Monolix version 2019R2 software (Antony, France: Lixoft SAS, 2019, http://lixoft.com/products/monolix/). […] For evaluation of the goodness-of-fit, the following plots were assessed: observed versus individual predicted concentrations, weighted residuals versus time and weighted residuals versus predictions. […]
Hydrolysis of GK-667 is very fast and the parent compound was essentially completely cleared from plasma within 10 min after injection. ICRF-193 was quantitatively dominating at the first sampling interval (5 min). […]

[9] = Process stability in untreated plasma; format: in vitro ADME, rabbit; conditions: 23 °C, 20 min
Procedure: Linearity was tested within the concentration range of 0.2 – 100 μM for all compounds in DMEM, the buffer and plasma and 10-100 pmol/106cells in NVCMs (method I). For method II, the concentration ranges 0.01-15 μM and 0.01-1 μM were used for determination of ICRF-193 and ICRF-193met in plasma, respectively. Unweighted and weighted (1/x and 1/x2) linear regression was applied to obtain the best fitting calibration model. […]
as §11

[10] = male, New Zealand White, rabbit, plasma, iv, rabbits n = 6, GK-667 5 mg/kg i.v., NCA
[11] = rabbits n = 6, GK-667 5 mg/kg i.v., NCA

## C[C@H](N)C(=O)OCN1C(=O)CN([C@H](C)[C@H](C)N2CC(=O)N(COC(=O)[C@H](C)N)C(=O)C2)CC1=O [GK-678, meso-2,3-bis(4-((S)-2-aminopropionyloxymethyl)-3,5-dioxopiperazin-1-yl)butane tetrahydrochloride]
[1]
  solubility: ~20 mg/mL
[2]
  LDH release, statistical significance compared to control: n.s.
[3]
  lowest concentration with significant protection against DAU-induced toxicity: 3 µM
[4]
  prodrug degradation in DMEM: fastest degradation
[4]; GK-667 compared with GK-678
  AUC0–3 h of ICRF-193 concentrations: no statistically significant differences

## C[C@H]([C@H](C)N1CC(=O)N(COC(=O)[C@@H](N)Cc2ccccc2)C(=O)C1)N1CC(=O)N(COC(=O)[C@@H](N)Cc2ccccc2)C(=O)C1 [GK-691, meso-2,3-bis(4-((S)-2-amino-3-phenylpropionyloxymethyl)-3,5-dioxopiperazin-1-yl)butane tetrahydrochloride]
[1]
  solubility: ~10 mg/mL
[2]
  LDH release, statistical significance compared to control: c
[3]
  lowest concentration with significant protection against DAU-induced toxicity: 3 µM

## C[C@H]([C@H](C)N(CC(N)=O)CC(=O)O)N(CC(N)=O)CC(=O)O [ICRF-193met]
[5]; male, New Zealand White, rabbit, plasma, iv, 5 mg/kg
  half-life: 1.4 h
[5]; male, New Zealand White, rabbit, plasma, iv, 5 mg/kg, rabbits n = 6, GK-667 5 mg/kg i.v., NCA
  Cmax: 800 nM
[5]; [10]
  AUC: 2.7 µM·h
  AUC(0-t): 2.6 µM·h
  MRT: 2.6 h
[5]; male, New Zealand White, rabbit, plasma, iv, rabbits n = 6, GK-667 5 mg/kg i.v., NCA, read-out: λz (converted)
  k el: 0.000144 s⁻¹
[5]; male, New Zealand White, rabbit, plasma, iv, rabbits, GK-667 5 mg/kg i.v., read-out: median tmax
  Tmax: 2 h
[5]; [11]
  AUMClast: 6.5 h^2∙µM
  AUMCtot: 7.1 h^2∙µM
  Cmax: 830 nM
  Tmax: 2 h
[6]; -80 °C for 1 month
  degradation in plasma on storage: no significant degradation
[6]; initial concentration 0.05 µM
  % of initial concentration, 1st freeze-thaw cycle: 94.1 ± 4.3%
  % of initial concentration, 2nd freeze-thaw cycle: 91.7 ± 0.7%
[6]; initial concentration 1.00 µM
  % of initial concentration, 1st freeze-thaw cycle: 93.9 ± 5.7%
  % of initial concentration, 2nd freeze-thaw cycle: 91.4 ± 7.0%
[1]; reason why it was not administered separately
  solubility (in words): poor solubility
[7]; extracted DMEM, 100 µM, 0 h
  percentage of initial concentration in autosampler: 101.5%
[7]; extracted DMEM, 100 µM, 8 h
  percentage of initial concentration in autosampler: 102.1%
[7]; extracted DMEM, 100 µM, 10 h
  percentage of initial concentration in autosampler: 102.7%
[7]; extracted NVCMs, 100 pmol/106 cells, 0 h
  percentage of initial concentration in autosampler: 100.0%
[7]; extracted NVCMs, 100 pmol/106 cells, 8 h
  percentage of initial concentration in autosampler: 97.7%
[7]; extracted NVCMs, 100 pmol/106 cells, 10 h
  percentage of initial concentration in autosampler: 95.0%
[7]; extracted buffer, 100 µM, 0 h
  percentage of initial concentration in autosampler: 102.3%
[7]; extracted buffer, 100 µM, 8 h
  percentage of initial concentration in autosampler: 102.0%
[7]; extracted plasma, 100 µM, 0 h
  percentage of initial concentration in autosampler: 100.4%
[7]; extracted plasma, 100 µM, 8 h
  percentage of initial concentration in autosampler: 96.5%
[7]; extracted plasma, 100 µM, 10 h
  percentage of initial concentration in autosampler: 99.1%
[8]; distribution volume for ICRF-193met
  V4: 0.31 L/kg
[8]; total clearance of ICRF-193met
  CLICRF-193met: 2.83 mL/min/kg
[9]
  stability in untreated plasma at laboratory temperature: stable
